# In publication PMC4464186 (EXCLI Journal, 2014):
# How the values were obtained:
# [1] = test system: metrazol-induced convulsion; details: metrazol-induced convulsion model, ref Sridhar et al., 2002, cited from earlier work
# Albino mice = assay type: in vivo; details: 100 mg/kg i.p.; with respect to control
# mice = assay type: in vivo; details: rotarod; doses up to 300 mg/kg; 0.5 and 4.0 h
structure (smiles),measurement,setting,value
"Cc1ccc2c(c1)C(=Nc1ccc(Cl)cc1)C(=O)N2 [3-(4-Chlorophenylimino)-5-methyl-1,3-dihydro-indol-2-one]",protection,[1]; at 100 mg kg^-1,87%
same,ED50,[1],53.61 mg/kg
"O=c1nc2[nH]c3ccc(Cl)cc3c2n[nH]1 [5e, 8-chloro-2H-[1,2,4]triazino[5,6-b]indol-3(5H)-one]",% Increased of immobility,Albino mice,54.39%
same,"neurotoxicity (motor impairment), in words",mice,no motor impairment effect
"O=c1nc2[nH]c3c(Br)cc(Br)cc3c2n[nH]1 [5i, 6,8-dibromo-2H-[1,2,4]triazino[5,6-b]indol-3(5H)-one]",% Increased of immobility,Albino mice,37.68%
"Cn1c2nc(=O)[nH]nc2c2cc(Br)cc(Br)c21 [5k, 6,8-dibromo-5-methyl-2H-[1,2,4]triazino[5,6-b]indol-3(5H)-one]",% Increased of immobility,Albino mice,45.96%
"NC(=O)N1c2ccccc2C=Cc2ccccc21 [Carbamazepine, reference compound]",% Increased of immobility,Albino mice,58.63%
